Patent publication US20210293825A1, “METHODS FOR PRECISION THERAPEUTIC TARGETING OF HUMAN CANCER CELL MOTILITY AND KITS THEREOF” (UNITED STATES GOVERNMENT AS REPRESENTED BY THE DEPARTMENT …, priority 2018, published 2021)

Tests used:
[1] = system: human breast cancer LM2-4H2N cells; assay: Breast cancer orthotopic implantation / resection survival model; type: in vivo, SCID-Beige mice; conditions: post-surgery adjuvant, 25 mg/kg daily oral gavage five times/week
Protocol: Cohorts of N=12 athymic mice bearing human PCa PC3-M cell orthotopic implants (a), or of N=5 non-tumor bearing athymic mice (b), were treated with KBU2046 incorporated into chow, and resultant lung metastasis (a) or plasma KBU2046 concentration (b) measured. Values are the mean±SEM. The relationship between dose and metastasis was evaluated by two-sided ANOVA (a). FIG. 2c a comprehensive characterization of KBU2046 pharmacokinetics. CD1 mice were dosed with 100 mg KBU2046/kg via oral gavage or intravenous injection (iv), and blood collected at the indicated time points (data from mice dosed at 25 mg/kg are in FIG. 12, and corroborate 100 mg/kg findings). For each route and time point, N=3 mice were sampled. Individual data points are the resultant plasma concentrations from individual mice, and are the mean of N=2 measurements. The dotted horizontal line denotes a concentration of 24 nM, which was the concentration of KBU2046 measured in the blood of mice whose metastasis were suppressed by 92% (a-b). […] Mice were orthotopically implanted with human breast cancer LM2-4H2N cells, the resultant primary tumors resected, and adjuvant treatment begun with KBU2046 by daily oral gavage five times/week. The survival of N=6 mice receiving vehicle was compared to that of N=6 mice receiving 25 mg/kg KBU2046 by the log rank (Mantel-Cox) test.
Breast cancer: orthotopic implantation. […]

[2] = system: phosphorylated Ser226 on HSP90β; assay: PhosphoScan LC-MS/MS proteomic analysis in PC3 cells; type: cell-based, human; conditions: 10 μM 3 days, then TGFβ
Protocol: The 83 kDa protein was identified by pretreating PC3 cells with KBU2046 or vehicle control, treating with TGFβ and performing LC-MS/MS analysis on proteins pulled down by the KinomeView® antibody used in FIG. 4a. Resultant data were analyzed with the SEQUEST/Sorcerer data analysis suite, and proteins further selected based upon predetermined parameters (FIG. 19).
Phospho-proteomic Analysis. The Kinoview™ and PhosphoScan™ assays were performed by Cell Signaling Technology Inc.
Proteins bound in this manner were analyzed in replicates of N=2 using PhosphoScan™ technology. This identified 483 phosphopeptide assignments from 306 parent proteins, with a mean false discovery rate of 0.30% (estimated via Sorcerer search of composite human database of forward and reverse protein entries). Proteins were considered if the average values for treatment and control were each 3 times that of background. Further, it was required that each of the N=2 replicate values (used to calculate the average) to be >/=2.5 fold above background. Interest was focused on which protein decreased with KBU2046, and it was required that the decrease be >/=2.5 fold, compared to control. According to these parameters, there were 19 phospho-proteins whose expression decreased in cells treated with KBU2046, compared to control. These are depicted herein. […]

CDC37 = target: T1, CDC37 (Homo sapiens, UniProt Q16543); assay: Biophysical binding assays and DARTS, isolated CDC37; conditions: ITC, thermal shift, biolayer interferometry, dynamic light scattering, DARTS
T1 construct: made in house; host or cells: BL-21 DE-3 E. coli, pET15b
Protocol: Studies used purified recombinant HSP90β or CDC37. […] For DARTS assay, HSP90β or CDC37 were individually pre-incubated with KBU2046, thermolysin added, and reaction products were separated by SDS PAGE and visualized by silver stain (depicted above). NTco—no thermolysin control. However, when the DARTS assay was conducted with both HSP90β and CDC37 present, KBU2046 protected both proteins from degradation in a concentration-dependent manner (see, FIG. 5a).
DARTS provides a sensitive measure of ligand-induced changes in protein structure and dynamics by measuring the ability of a ligand to protect its target from protease digestion (Lomenick, B. et al., Proc Natl Acad Sci USA 106, 21984-9 (2009)). […] The intensity of the CDC37 band increased, that of the HSP90β degradation product decreased, and both effects were statistically significant, concentration-dependent and were evident at 10 nM. […] Further, these findings also indicate that KBU2046 is not acting as a classical HSP90 inhibitor.
Biophysical and Biochemical Binding Assays. […]

[3] = system: phosphorylation of p38 MAPK or of HSP27; assay: Downstream phosphorylation of p38 MAPK and HSP27 in cells (Western blot); type: cell-based, human; conditions: PC3-M cells, 50 μM, 24 hours, then TGFβ
Protocol: FIG. 16a is a depiction of established MKK4 pathway regulating human PCa cell metastasis. […] Values are the mean±SD (of N=2 replicates) increase in melting temperature (ΔTm) of purified recombinant MKK4 induced by the indicated concentrations of KBU2046 or genistein. […] The indicated concentrations of KBU2046 were added to recombinant activated MKK4, and its ability to phosphorylate kinase dead p38a MAPK (K53A) was measured by Western blot for total (p38 MAPK) and phosphorylated (pp38 MAPK) forms of p38 MAPK. […] PC3-M cells were pre-treated for 24 hours with 50 μM KBU2046 or genistein, as indicated, then with TGFβ, and Western blot performed. These findings are from a single experiment, with similar findings in identical separate experiments, repeated at least once.

T1 sequence (Q16543 whole entry): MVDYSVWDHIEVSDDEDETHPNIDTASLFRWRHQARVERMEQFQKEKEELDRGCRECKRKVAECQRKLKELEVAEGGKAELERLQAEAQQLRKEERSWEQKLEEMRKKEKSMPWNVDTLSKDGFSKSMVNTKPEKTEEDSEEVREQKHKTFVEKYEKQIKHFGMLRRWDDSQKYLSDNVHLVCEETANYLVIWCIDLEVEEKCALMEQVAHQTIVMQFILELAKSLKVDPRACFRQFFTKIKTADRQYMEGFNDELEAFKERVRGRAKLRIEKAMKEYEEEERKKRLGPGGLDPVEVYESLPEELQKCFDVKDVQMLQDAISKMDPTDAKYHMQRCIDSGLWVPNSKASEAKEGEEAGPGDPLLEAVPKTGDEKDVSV

O=C1c2ccccc2OCC1c1ccc(F)cc1 (racemic) [KBU2046, (±)-3(4-fluorophenyl)chroman-4-one]
survival [1]: significantly prolonged the survival
decrease of abundance of phosphorylated Ser226 on HSP90β [2]: 6.6 fold
binding to CDC37 (CDC37): no evidence of KBU2046 binding
inhibition of downstream phosphorylation of p38 MAPK or HSP27 [3]: did not inhibit downstream phosphorylation of p38 MAPK or of HSP27
